Results: patent US10954214B2 (Janssen Pharmaceutica NV, priority 2016, dated 2021)

What follows are molecules tested against full-length MALT1 protein (Strep-MALT1(1-824)-His) (Homo sapiens (Human), UniProt Q9UDY8) (assay: MALT1 Biochemical Protease Assay (Ac-LRSR-AMC substrate)). Settings: 10 nM FL MALT1, 200 μM Ac-LRSR-AMC, 4 h at RT; read-out: MALT1_Biochemical activity (Ac-LRSR-amc) IC50.
Procedure: The tetrapeptide LRSR is coupled to AMC (7-amino-4-methylcoumarin) and provides a quenched, fluorescent substrate for the MALT1 protease (SM Biochemicals). […] Test compound concentrations ranged from 30 μM to 0.5 nM using 11 dilution steps (1:3). Background signal was measured from control wells containing assay buffer without enzyme which functions as low control (LC). High control (HC) values were generated using the reaction with enzyme but no compound treatment. Compounds were pre-incubated with MALT1 enzyme for 50 minutes at RT. […] The reaction was subsequently incubated for 4 h at RT and fluorescence was measured.
LC=Median of the low control values
An estimate of the slope of the plot in terms of the Hill coefficient was also obtained. IC50 Calculation:
[formula] With • UB=upper bound • LB=lower bound Used in “Lexis Dose Response Curve Fitting” Version 1.0.

Sequence of full-length MALT1 protein (Strep-MALT1(1-824)-His) (Q9UDY8 whole entry): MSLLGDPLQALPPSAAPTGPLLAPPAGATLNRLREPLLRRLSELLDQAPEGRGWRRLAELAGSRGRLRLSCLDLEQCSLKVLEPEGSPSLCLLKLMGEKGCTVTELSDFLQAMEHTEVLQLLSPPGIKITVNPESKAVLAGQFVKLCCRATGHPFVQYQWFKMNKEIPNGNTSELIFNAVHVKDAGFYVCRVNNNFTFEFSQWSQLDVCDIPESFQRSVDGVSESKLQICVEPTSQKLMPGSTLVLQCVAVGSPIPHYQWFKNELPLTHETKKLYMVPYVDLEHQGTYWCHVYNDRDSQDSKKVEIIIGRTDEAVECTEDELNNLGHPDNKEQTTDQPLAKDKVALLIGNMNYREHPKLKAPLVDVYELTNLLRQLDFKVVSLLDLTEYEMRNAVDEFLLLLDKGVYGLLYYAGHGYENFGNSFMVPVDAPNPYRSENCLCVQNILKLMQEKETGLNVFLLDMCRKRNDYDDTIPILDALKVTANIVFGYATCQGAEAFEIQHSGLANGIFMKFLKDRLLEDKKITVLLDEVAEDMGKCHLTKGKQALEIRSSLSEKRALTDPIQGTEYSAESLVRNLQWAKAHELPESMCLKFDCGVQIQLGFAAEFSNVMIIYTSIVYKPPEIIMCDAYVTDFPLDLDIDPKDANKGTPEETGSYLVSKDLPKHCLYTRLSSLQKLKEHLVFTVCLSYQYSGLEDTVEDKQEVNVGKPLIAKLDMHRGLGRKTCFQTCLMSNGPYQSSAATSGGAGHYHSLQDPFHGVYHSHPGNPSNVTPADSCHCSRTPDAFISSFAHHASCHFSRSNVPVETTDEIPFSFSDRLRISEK

First: Cc1c(C(=O)Nc2cnc(-n3nccn3)c(Cl)c2)cnn1-c1ccnc2ccccc12 [Cpd 64, N-(5-chloro-6-(2H-1,2,3-triazol-2-yl)pyridin-3-yl)-5-methyl-1-(quinolin-4-yl)-1H-pyrazole-4-carboxamide]
Second: Cc1ncnn1-c1ccc(NC(=O)c2cnn(-c3cccc4ccncc34)c2C(F)(F)F)cc1Cl [Cpd 31, N-(3-chloro-4-(5-methyl-1H-1,2,4-triazol-1-yl)phenyl)-1-(isoquinolin-8-yl)-5-(trifluoromethyl)-1H-pyrazole-4-carboxamide]
The IC50 of the first is 7.7-fold lower: 1150 nM for the first, 8910 nM for the second. The first is the more potent here.

First: Cc1ncn(-c2ncc(NC(=O)c3cnn(-c4cccc5ccncc45)c3C(F)(F)F)cc2Cl)n1 [Cpd 30, N-(5-chloro-6-(3-methyl-1H-1,2,4-triazol-1-yl)pyridin-3-yl)-1-(isoquinolin-8-yl)-5-(trifluoromethyl)-1H-pyrazole-4-carboxamide]
Second: O=C(Nc1cnc(N2CCCS2(=O)=O)c(Cl)c1)c1cnn(-c2cccc3ccncc23)c1C(F)(F)F [Cpd 20, N-(5-chloro-6-(1,1-dioxidoisothiazolidin-2-yl)pyridin-3-yl)-1-(isoquinolin-8-yl)-5-(trifluoromethyl)-1H-pyrazole-4-carboxamide]
The IC50 of the first is 1.9-fold lower: 5010 nM for the first, 9550 nM for the second. The first is the more potent here.

`O=C(Nc1ccc(-n2nccn2)nc1)c1cnn(-c2cncc3ccccc23)c1C(F)(F)F` [Cpd 71, N-(6-(2H-1,2,3-triazol-2-yl)pyridin-3-yl)-1-(isoquinolin-4-yl)-5-(trifluoromethyl)-1H-pyrazole-4-carboxamide] and `O=C(Nc1cnc(-n2nccn2)c(Cl)c1)c1cnn(-c2cc3ncccc3cc2F)c1C(F)(F)F` [Cpd 67, N-(5-Chloro-6-(2H-1,2,3-triazol-2-yl)pyridin-3-yl)-1-(6-fluoroquinolin-7-yl)-5-(trifluoromethyl)-1H-pyrazole-4-carboxamide] are within 1.5-fold of each other in IC50: 1580 nM for the first, 2040 nM for the second.

First: N#Cc1ncc(NC(=O)c2cnn(-c3cccc4ccncc34)c2C(F)(F)F)cc1C(F)(F)F [Cpd 13, N-(6-cyano-5-(trifluoromethyl)pyridin-3-yl)-1-(isoquinolin-8-yl)-5-(trifluoromethyl)-1H-pyrazole-4-carboxamide]
Second: COC(=O)c1ncc(NC(=O)c2ncc(NC(=O)c3cnn(-c4cncc5ccccc45)c3C(F)(F)F)cc2Cl)cc1Cl [Cpd 44, Methyl 3-chloro-5-(3-chloro-5-(1-(isoquinolin-4-yl)-5-(trifluoromethyl)-1H-pyrazole-4-carboxamido)picolinamido)picolinate]
The IC50 of the first is 73-fold higher: 6030 nM for the first, 83 nM for the second. The second is the more potent here.

Going from `O=C(Nc1cnc(-n2cccn2)c(Cl)c1)c1cnn(-c2cccc3ccncc23)c1C(F)(F)F` [Cpd 15, N-(5-chloro-6-(1H-pyrazol-1-yl)pyridin-3-yl)-1-(isoquinolin-8-yl)-5-(trifluoromethyl)-1H-pyrazole-4-carboxamide] to “N-(3-chloro-4-(1H-1,2,3-triazol-1-yl)phenyl)-1-(isoquinolin-4-yl)-5-(trifluoromethyl)-1H-pyrazole-4-carboxamide [Cpd 18]”, the IC50 falls from 4170 nM to 2290 nM (1.8-fold).

Compared with `CN1CCC(Oc2ncc(NC(=O)c3cnn(-c4cncc5ccccc45)c3C(F)(F)F)cc2C#N)CC1` [Cpd 80, N-(5-cyano-6-((1-methylpiperidin-4-yl)oxy)pyridin-3-yl)-1-(isoquinolin-4-yl)-5-(trifluoromethyl)-1H-pyrazole-4-carboxamide], `O=C(Nc1cnc(-n2nccn2)c(Cl)c1)c1cnn(-c2cccc3ncccc23)c1` [Cpd 60, N-(5-chloro-6-(2H-1,2,3-triazol-2-yl)pyridin-3-yl)-1-(quinolin-5-yl)-1H-pyrazole-4-carboxamide] is 16-fold higher in IC50: 724 nM for the first, 11500 nM for the second.

`O=C(Nc1ccc(-n2cccn2)c(Cl)c1)c1cnn(-c2cccc3ccncc23)c1C(F)(F)F` [Cpd 12, N-(3-chloro-4-(1H-pyrazol-1-yl)phenyl)-1-(isoquinolin-8-yl)-5-(trifluoromethyl)-1H-pyrazole-4-carboxamide] and `Nc1nccc(-c2ccc(NC(=O)c3cnn(-c4cccc5ccncc45)c3C(F)(F)F)cc2Cl)n1` [Cpd 14, N-(4-(2-aminopyrimidin-4-yl)-3-chlorophenyl)-1-(isoquinolin-8-yl)-5-(trifluoromethyl)-1H-pyrazole] are within 1.5-fold of each other in IC50: 4070 nM for the first, 4570 nM for the second.

Compared with `N#Cc1cc(NC(=O)c2cnn(-c3cncc4ccccc34)c2C(F)(F)F)ccn1` [Cpd 77, N-(2-cyanopyridin-4-yl)-1-(isoquinolin-4-yl)-5-(trifluoromethyl)-1H-pyrazole-4-carboxamide], `Cc1ccc2c(-n3ncc(C(=O)Nc4cnc(-n5nccn5)c(Cl)c4)c3C(F)(F)F)cccc2n1` [Cpd 37, N-(5-Chloro-6-(2H-1,2,3-triazol-2-yl)pyridin-3-yl)-1-(2-methylquinolin-5-yl)-5-(trifluoromethyl)-1H-pyrazole-4-carboxamide] is 3.5-fold higher in IC50: 417 nM for the first, 1440 nM for the second. The first is the more potent here.

First: O=C(Nc1cnc(-n2nccn2)c(Cl)c1)c1cnn(-c2cncc3ccccc23)c1 [Cpd 76, N-(5-chloro-6-(2H-1,2,3-triazol-2-yl)pyridin-3-yl)-1-(isoquinolin-4-yl)-1H-pyrazole-4-carboxamide]
Second: N#Cc1cc(NC(=O)c2cnn(-c3cncc4ccccc34)c2C(F)(F)F)cnc1C(=O)N1CCN(CCCCN)CC1 [Cpd 101, N-(6-(4-(4-aminobutyl)piperazine-1-carbonyl)-5-cyanopyridin-3-yl)-1-(isoquinolin-4-yl)-5-(trifluoromethyl)-1H-pyrazole-4-carboxamide]
The IC50 of the first is 3.1-fold higher: 8320 nM for the first, 2690 nM for the second. The second is the more potent here.

`Cc1ncn(-c2ccc(NC(=O)c3cnn(-c4cccc5ccncc45)c3C(F)(F)F)cc2Cl)n1` [Cpd 29, N-(3-chloro-4-(3-methyl-1H-1,2,4-triazol-1-yl)phenyl)-1-(isoquinolin-8-yl)-5-(trifluoromethyl)-1H-pyrazole-4-carboxamide] showed an IC50 of 2460 nM.
